Molecules are shown by their SMILES. Converted amounts (≈) assume the structure as drawn.

Common to all, as to format: functional
The subject of assay [1] is Enterococcus faecalis. The experiment in a line: In vitro antibacterial activity against Enterococcus faecalis; 0.06-0.125.
The subject of assay [2] is Staphylococcus aureus. The assay is described as follows: In vitro antibacterial activity against […]; 0.125-0.25.
The subject of assay [3] is Streptococcus pneumoniae. The assay is described as follows: In vitro antibacterial activity against Streptococcus pneumoniae; 0.003-0.015.
Assay [4] relates to Staphylococcus aureus. The assay is described as follows: In vivo efficacy;(sc) tested for protection against staphylococcus infections in mice. Particulars: read-out: PD50.
In assay [5] the test system is Streptococcus pneumoniae. The assay is described as follows: In vitro antibacterial activity against Streptococcus pneumoniae; […].
The subject of assay [6] is Staphylococcus aureus. The experiment in a line: In vitro antibacterial activity against […]; 0.003-0.007.
Assay [7] deals with Enterococcus faecalis. The assay is described as follows: In vitro antibacterial activity against Enterococcus faecalis.
For assay [8], the system named is Streptococcus pneumoniae. The experiment in a line: In vitro antibacterial activity against Streptococcus pneumoniae.
Assay [9] concerns Staphylococcus aureus. The experiment in a line: In vitro antibacterial activity against […]; 0.0070-0.03.
Assay [10] concerns Mus musculus. The experiment in a line: In vivo efficacy (sc) tested for protection against staphylococcus infections in mice; 0.3-2.8. To be noted: read-out: PD50.
Assay [11] deals with Mus musculus. The experiment in a line: In vivo efficacy (sc) tested for protection against staphylococcus infections in mice; 1.1-3.3. Particulars: read-out: PD50.
In assay [12] the test system is Staphylococcus aureus. The experiment in a line: In vitro antibacterial activity against Staphylococcus aureus.

Broadly, the MIC is the least concentration at which growth counts as inhibited. Regarding `C=C(NC(=O)c1csc(-c2nc3c(cc2O)-c2nc(cs2)C(=O)N[C@@H]([C@@H](C)O)C(=O)N/C(=C(\C)OC)c2nc(cs2)C(=O)N[C@@H]2c4nc(cs4)C(=O)N[C@@H](COC(=O)c4c5c6c(cccc6n4OCCN4CCOCC4)COC(=O)[C@@H](O[C@H]4C[C@](C)(O)[C@H](N(C)C)[C@H](C)O4)[C@H]2OC5)c2nc-3cs2)n1)C(N)=O`, the minimal inhibitory concentration (MIC) in the assay on Enterococcus faecalis [1] was under 0.125 µg/mL; in the assay with Staphylococcus aureus [2], under 0.25 µg/mL; against Streptococcus pneumoniae [3] it was under 0.015 µg/mL. Moreover, the ED50 in the assay on Staphylococcus aureus [4] amounted to 3.4 mg/kg.

Consider `C=C(NC(=O)c1csc(-c2nc3c(cc2OC)-c2nc(cs2)C(=O)N[C@@H]([C@@H](C)O)C(=O)N/C(=C(\C)OC)c2nc(cs2)C(=O)N[C@@H]2c4nc(cs4)C(=O)N[C@@H](COC(=O)c4c5c6c(cccc6n4OC)COC(=O)[C@@H](O[C@H]4C[C@](C)(O)[C@H](N(C)C)[C@H](C)O4)[C@H]2OC5)c2nc-3cs2)n1)C(N)=O`, for which the MIC against Streptococcus pneumoniae [5] is under 1 ng/mL; against Staphylococcus aureus [6], under 7 ng/mL; against Enterococcus faecalis [7], 0.015 µg/mL (≈ 0.0102 µM). The ED50 in the assay with Staphylococcus aureus [4] came to 3.7 mg/kg.

In the case of `C=C(NC(=O)c1csc(-c2nc3c(cc2O)-c2nc(cs2)C(=O)N[C@@H]([C@@H](C)O)C(=O)N/C(=C(\C)OC)c2nc(cs2)C(=O)N[C@@H]2c4nc(cs4)C(=O)N[C@@H](COC(=O)c4c5c6c(cccc6n4O)COC(=O)[C@@H](O[C@H]4C[C@](C)(O)[C@H](N(C)C)[C@H](C)O4)[C@H]2OC5)c2nc-3cs2)n1)C(N)=O` [MJ347-81F4 A], the MIC was 0.03 µg/mL (≈ 0.0209 µM) against Enterococcus faecalis [7], 2 ng/mL (≈ 0.00139 µM) against Streptococcus pneumoniae [8] and under 0.03 µg/mL with Staphylococcus aureus [9]. For the same molecule, the ED50 in the assay on Mus musculus [10] was under 2.8 mg/kg.

As to `CN[C@H](CC(C)C)C(=O)N[C@H]1C(=O)N[C@@H](CC(N)=O)C(=O)N[C@H]2C(=O)N[C@H]3C(=O)N[C@H](C(=O)N[C@H](C(=O)O)c4cc(O)cc(O)c4-c4cc3ccc4O)[C@H](O)c3ccc(c(Cl)c3)Oc3cc2cc(c3O[C@@H]2O[C@H](CO)[C@@H](O)[C@H](O)[C@H]2O[C@H]2C[C@](C)(N)[C@H](O)[C@H](C)O2)Oc2ccc(cc2Cl)[C@H]1O` [VANCOMYCIN], the ED50 in the assay on Mus musculus [11] is under 3.3 mg/kg. Also, the minimum inhibitory concentration (MIC) is under 0.5 µg/mL against Enterococcus faecalis [7] and 0.2 µg/mL (≈ 0.138 µM) in the assay with Staphylococcus aureus [12].

The record behind these values is ChEMBL document CHEMBL1146687, “Novel semi-synthetic nocathiacin antibiotics: synthesis and antibacterial activity of bis- and mono-O-alkylated derivatives” (Bioorg Med Chem Lett, 2004).
